Like-named read-outs stand apart in the source and are kept apart here.
What was measured:
[1] = tested on: HCV replicon 1a; experiment: Cell-based HCV replicon assay (TaqMan), genotype 1a replicon; conditions: HCV 1a replicon cells, replicon RNA by TaqMan on day 3, EC90 = concentration for ΔCT=3.2 over baseline
Procedure: (§1) Measurement of inhibition by compounds of the present invention was performed using the HCV replicon system. Several different replicons encoding different HCV genotypes or mutations were used. In addition, potency measurements were made using different formats of the replicon assay, including different ways of measurements and different plating formats. See Jan M. Vrolijk et al., A replicons-based bioassay for the measurement of interferons in patients with chronic hepatitis C, 110 J. VIROLOGICAL METHODS 201 (2003); Steven S. Carroll et al., Inhibition of Hepatitis C Virus RNA Replication by 2′-Modified Nucleoside Analogs, 278(14) J. BIOLOGICAL CHEMISTRY 11979 (2003). However, the underlying principles are common to all of these determinations, and are outlined below.
(§2) Compounds of the present invention were assayed for cell-based anti-HCV activity using the following protocol. Replicon cells were seeded at 5000 cells/well in 96-well collagen I-coated Nunc plates in the presence of the test compound. Various concentrations of test compound, typically in 10 serial 2-fold dilutions, were added to the assay mixture, with the starting concentration ranging from 250 μM to 1 μM. The final concentration of DMSO was 0.5%, fetal bovine serum was 5%, in the assay media. Cells were harvested on day 3 by the addition of 1× cell lysis buffer (Ambion cat #8721). The replicon RNA level was measured using real time PCR (TaqMan® assay). The amplicon was located in 5B. The PCR primers were: 5B.2F, ATGGACAGGCGCCCTGA (SEQ. ID NO. 1); 5B.2R, […] (SEQ. ID NO. 2); the probe sequence was FAM-labeled CACGCCATGCGCTGCGG (SEQ. ID NO. 3). GAPDH RNA was used as endogenous control and was amplified in the same reaction as NS5B (multiplex PCR) using primers and VIC-labeled probe recommended by the manufacturer (PE Applied Biosystem). The real-time […] reactions were run on ABI PRISM 7900HT Sequence Detection System using the following program: 48° C. for 30 minutes, 95° C. for 10 minutes, 40 cycles of 95° C. for 15 sec, 60° C. for 1 minute. The ACT values (CT5B-CTGAPDH) were plotted against the concentration of test compound and fitted to the sigmoid dose-response model using XLfit4 (MDL). EC50 was defined as the concentration of inhibitor necessary to achieve ΔCT=1 over the projected baseline; EC90 the concentration necessary to achieve ΔCT=3.2 over the baseline. Alternatively, to quantitate the absolute amount of replicon RNA, a standard curve was established by including serially diluted T7 transcripts of replicon RNA in the Taqman assay. All TaqMan® reagents were from PE Applied Biosystems. Such an assay procedure was described in detail in e.g. Malcolm et al., Antimicrobial Agents and Chemotherapy 50: 1013-1020 (2006).
(§3) HCV replicon EC50 assay data for various replicons and mutants was calculated for selected compounds of the present invention using this method and is provided in the tables above herein.

[2] = tested on: HCV replicon 1b; experiment: Cell-based HCV replicon assay (TaqMan), genotype 1b replicon; conditions: HCV 1b replicon cells, replicon RNA by TaqMan on day 3, EC90 = concentration for ΔCT=3.2 over baseline
Procedure: as §1, §2, §3

[3] = tested on: HCV replicon 1a Y93H; experiment: Cell-based HCV replicon assay (TaqMan), genotype 1a Y93H mutant replicon; conditions: Hepatitis C virus, 72 h, read-out: 1a Y93H EC90, HCV 1a Y93H mutant replicon cells, replicon RNA by TaqMan on day 3; EC90 = concentration for ΔCT=3.2 over baseline
Procedure: as §1, §2, §3

[4] = tested on: HCV replicon 2b; experiment: Cell-based HCV replicon assay (TaqMan), genotype 2b replicon; conditions: EC90 = concentration for ΔCT=3.2 over baseline
Procedure: as §1, §2, §3

[5] = Hepatitis C virus, 72 h, read-out: 2b EC90, HCV 2b replicon cells, replicon RNA by TaqMan on day 3

SMILES | EC90 ([1]; Hepatitis C virus, 72 h) [nM] | EC90 ([2]; Hepatitis C virus, 72 h) [nM] | EC90 [3] [nM] | EC90 [4, 5] [nM] | EC90 [1] [nM] | EC90 [2] [nM] | EC90 ([4]; read-out: 2b EC90, HCV 2b replicon cells, replicon RNA by TaqMan on day 3) [nM]
COC(=O)N[C@H](C(=O)N1C[Si](C)(C)C[C@H]1c1ncc(-c2ccc(-c3ccc(-c4cnc([C@@H]5C[C@H]6C[C@H]6N5C(=O)[C@@H](NC(=O)OC)C(C)C)[nH]4)cc3)cc2)[nH]1)C(C)C [Compound 8] | 0.029 | 0.002 | > 100 | 249 | – | – | –
CC[C@H](NC(=O)OC)C(=O)N1CCC[C@H]1c1ncc(-c2ccc(-c3ccc(-c4cnc([C@@H]5C[Si](C)(C)CN5C(=O)[C@H](CC)NC(=O)OC)[nH]4)cc3)cc2)[nH]1 [Compound 12] | 0.187 | 18.1 | 694 | 535 | – | – | –
COC(=O)N[C@@H](Cc1ccccc1)C(=O)N1CCC[C@H]1c1ncc(-c2ccc(-c3ccc(-c4cnc([C@@H]5C[Si](C)(C)CN5C(=O)[C@H](Cc5ccccc5)NC(=O)OC)[nH]4)cc3)cc2)[nH]1 [Compound 13] | 29.8 | 923 | 1000 | 1000 | – | – | –
CC[C@H](C)[C@H](NC(=O)OC)C(=O)N1CCC[C@H]1c1ncc(-c2ccc(-c3ccc(-c4cnc([C@@H]5C[Si](C)(C)CN5C(=O)[C@@H](NC(=O)OC)[C@@H](C)CC)[nH]4)cc3)cc2)[nH]1 [Compound 14] | – | – | 1000 | – | 3.22 | 23.8 | 1000
CCC[C@H](NC(=O)OC)C(=O)N1CCC[C@H]1c1ncc(-c2ccc(-c3ccc(-c4cnc([C@@H]5C[Si](C)(C)CN5C(=O)[C@H](CCC)NC(=O)OC)[nH]4)cc3)cc2)[nH]1 [Compound 15] | 2.43 | 45.8 | 542 | 515 | – | – | –
COC(=O)NC1(C(=O)N2CCC[C@H]2c2ncc(-c3ccc(-c4ccc(-c5cnc([C@@H]6C[Si](C)(C)CN6C(=O)C6(NC(=O)OC)CCC6)[nH]5)cc4)cc3)[nH]2)CCC1 [Compound 31] | – | 2.2 | > 1000 | > 1000 | – | – | –
COC(=O)N[C@@H](CSC)C(=O)N1CCC[C@H]1c1ncc(-c2ccc(-c3ccc(-c4cnc([C@@H]5C[Si](C)(C)CN5C(=O)[C@H](CSC)NC(=O)OC)[nH]4)cc3)cc2)[nH]1 [Compound 32] | – | 0.03 | > 1000 | 144 | – | – | –
COC(=O)N[C@H](C(=O)N1CCC[C@H]1c1ncc(-c2ccc(-c3ccc(-c4cnc([C@@H]5C[Si](C)(C)CN5C(=O)[C@@H](NC(=O)OC)C5CCOCC5)[nH]4)cc3)cc2)[nH]1)C1CCOCC1 [Compound 33] | – | 0.09 | 43 | 7.6 | – | – | –
COC(=O)N[C@H](C(=O)N1CCC[C@H]1c1ncc(-c2ccc(-c3ccc(-c4cnc([C@@H]5C[Si](C)(C)CN5C(=O)[C@@H](NC(=O)OC)C(C)(C)OC)[nH]4)cc3)cc2)[nH]1)C(C)(C)OC [Compound 35] | – | 0.09 | > 1000 | > 1000 | – | – | –
COC(=O)N[C@@H](CC(C)(C)C)C(=O)N1CCC[C@H]1c1ncc(-c2ccc(-c3ccc(-c4cnc([C@@H]5C[Si](C)(C)CN5C(=O)[C@H](CC(C)(C)C)NC(=O)OC)[nH]4)cc3)cc2)[nH]1 [Compound 36] | – | 0.03 | 617 | 434 | – | – | –
COC(=O)N[C@@H](CC1CC1)C(=O)N1CCC[C@H]1c1ncc(-c2ccc(-c3ccc(-c4cnc([C@@H]5C[Si](C)(C)CN5C(=O)[C@H](CC5CC5)NC(=O)OC)[nH]4)cc3)cc2)[nH]1 [Compound 37] | – | 0.03 | 425 | 888 | – | – | –
CC[C@@H](O)[C@H](NC(=O)OC)C(=O)N1CCC[C@H]1c1ncc(-c2ccc(-c3ccc(-c4cnc([C@@H]5C[Si](C)(C)CN5C(=O)[C@@H](NC(=O)OC)[C@H](O)CC)[nH]4)cc3)cc2)[nH]1 [Compound 38] | – | 0.21 | > 1000 | > 1000 | – | – | –
COC(=O)N[C@H](C(=O)N1CCC[C@H]1c1ncc(-c2ccc(-c3ccc(-c4cnc([C@@H]5C[Si](C)(C)CN5C(=O)[C@@H](NC(=O)OC)[C@H](O)C(C)C)[nH]4)cc3)cc2)[nH]1)[C@H](O)C(C)C [Compound 39] | – | 0.03 | > 1000 | 510 | – | – | –
COC(=O)N[C@H](C(=O)N1C[Si](C)(C)C[C@H]1c1ncc(-c2ccc(-c3ccc(-c4cnc([C@@H]5C[C@H]6C[C@H]6N5C(=O)[C@@H](NC(=O)OC)C5CCOCC5)[nH]4)cc3)cc2)[nH]1)C1CCOCC1 [Compound 48] | 0.18 | – | 144 | 9 | – | – | –
CC(C)(C)OC(=O)N1C[Si](C)(C)C[C@H]1c1nc(Cl)c(-c2ccc(-c3ccc(-c4[nH]c([C@@H]5C[C@H]6C[C@H]6N5C(=O)OC(C)(C)C)nc4Cl)cc3)cc2)[nH]1 [Compound 49] | > 1000 | – | > 1000 | > 1000 | – | – | –
COC(=O)N[C@H](C(=O)N1C[Si](C)(C)C[C@H]1c1nc(Cl)c(-c2ccc(-c3ccc(-c4[nH]c([C@@H]5C[C@H]6C[C@H]6N5C(=O)[C@@H](NC(=O)OC)C(C)C)nc4Cl)cc3)cc2)[nH]1)C(C)C [Compound 51] | 0.008 | – | 13.7 | 2.9 | – | – | –
COC(=O)N[C@H](C(=O)N1C[Si](C)(C)C[C@H]1c1nc(Cl)c(-c2ccc(-c3ccc(-c4[nH]c([C@@H]5C[C@H]6C[C@H]6N5C(=O)[C@@H](NC(=O)OC)C5CCOCC5)nc4Cl)cc3)cc2)[nH]1)C1CCOCC1 [Compound 54] | 0.023 | – | 2.5 | 0.48 | – | – | –
COC(=O)N[C@H](C(=O)N1C[Si](C)(C)C[C@H]1c1ncc(-c2ccc(-c3ccc(-c4[nH]c([C@@H]5CCCN5C(=O)[C@@H](NC(=O)OC)C(C)C)nc4C4CC4)cc3)cc2)[nH]1)C(C)C [Compound 63] | 0.69 | – | 882 | 451 | – | – | –
COC(=O)N[C@H](C(=O)N1C[Si](C)(C)C[C@H]1c1ncc(-c2ccc(-c3ccc(-c4[nH]c([C@@H]5CCCN5C(=O)[C@@H](NC(=O)OC)C(C)C)nc4Cl)cc3)cc2)[nH]1)C(C)C [Compound 64] | 0.17 | – | 344 | 99 | – | – | –
COC(=O)N[C@H](C(=O)N1C[Si](C)(C)C[C@H]1c1ncc(-c2ccc(-c3ccc(-c4[nH]c([C@@H]5CCCN5C(=O)[C@@H](NC(=O)OC)C5CCOCC5)nc4C4CC4)cc3)cc2)[nH]1)C1CCOCC1 [Compound 66] | 0.07 | – | 88 | 1.6 | – | – | –
C[Si]1(C)C[C@@H](c2ncc(-c3ccc(-c4ccc(-c5[nH]c([C@@H]6CCCN6C(=O)[C@H]6CCCO6)nc5Cl)cc4)cc3)[nH]2)N(C(=O)[C@H]2CCCO2)C1 [Compound 67] | 211 | – | 510 | > 1000 | – | – | –
